What was measured:
α1-Adrenergic receptor = α1-Adrenergic receptor binding, [^3 H] prazosin, rat brain cortex membranes; details: 0.2 nM [^3 H] prazocin, pH 7.4, 30 min, room temperature
Description: (§1) After the removal of nuclei by centrifugation at 1000×g for 10 min, P2 membranes were pelleted by centrifuging the supernatant at 22,000×g for 20 min. After two periods of centrifugation at 22,000×g and resuspension in fresh buffer, the membrane suspension (about 2 mg/ml protein) was ready for use. α1 -Adrenergic receptor binding assays (in triplicate) were carried out with 0.2 nM [^3 H] prazocin in a final volume of 1.0 ml of Tris buffer at pH 7.4 for 30 min at room temperature, using 10 μM phentolamine to determine non-specific binding. The concentrations of synthetic compounds for competition binding were in the range of 0.1-200 nM. α2 -adrenergic receptor binding assays (in triplicate) were carried out with 1 nM [^3 H] clonidine in the presence of 10 mM MgCl2 and in a final volume of 1.0 ml of Tris buffer at pH 7.4 for 30 min at room temperature, using 10 μM clonidine to determine non-specific binding. The concentrations of synthetic compounds for competition binding were in the range of 0.1-100 μM. […] The amount of membrane protein used in each assay was in the range of 300-400 μg, as determined by the method of Lowry et al. The results are given in Table 2. […] All other chemicals used were reagent grade and were purchased from Sigma (St. Louis, Mo.).

[1] = Antihypertensive activity in anesthetized cats (blood pressure); assay type: in vivo, cat; details: pentobarbital-anesthetized cats
Description: The pharmacological activities of the compounds of the present invention are described in the following experiment. In this experiment, the test compounds used are as follows.
Adult cats of either sex, 2-3 Kg, anesthetized with pentobarbital sodium (30 mg/Kg i.p.) were used. The trachea was intubated to provide artificial respiration with air by means of a Harvard respirator (respiration rate=6-20/min and colume=40-50 ml/stroke). Both femoral artery and vein were cannulated with PE 150 to monitor blood pressure and for drug administration respectively. Body temperature was maintained at 37.5° C. with a heating pad and monitored with a rectal thermometer. Blood pressure was measured with a Statham P23D pressure transducer via a polyethylene cannula conducted to a right femoral artery. Heart rate was measured through a Grass Model 7B tachograph preamplifier triggered by the pulses of arterial blood pressure. All data were recorded on a Grass Model 7B polygraph.

α2-adrenergic receptor = molecular target: T1, α2-adrenergic receptor (Rattus norvegicus, UniProt P22909); assay: α2-Adrenergic receptor binding, [^3 H] clonidine, rat brain cortex membranes; details: 1 nM [^3 H] clonidine, 10 mM MgCl2, pH 7.4, 30 min, room temperature
T1 construct: from tissue; host or cells: rat brain cortex, P2 membranes
T1 sequence (P22909 1-465): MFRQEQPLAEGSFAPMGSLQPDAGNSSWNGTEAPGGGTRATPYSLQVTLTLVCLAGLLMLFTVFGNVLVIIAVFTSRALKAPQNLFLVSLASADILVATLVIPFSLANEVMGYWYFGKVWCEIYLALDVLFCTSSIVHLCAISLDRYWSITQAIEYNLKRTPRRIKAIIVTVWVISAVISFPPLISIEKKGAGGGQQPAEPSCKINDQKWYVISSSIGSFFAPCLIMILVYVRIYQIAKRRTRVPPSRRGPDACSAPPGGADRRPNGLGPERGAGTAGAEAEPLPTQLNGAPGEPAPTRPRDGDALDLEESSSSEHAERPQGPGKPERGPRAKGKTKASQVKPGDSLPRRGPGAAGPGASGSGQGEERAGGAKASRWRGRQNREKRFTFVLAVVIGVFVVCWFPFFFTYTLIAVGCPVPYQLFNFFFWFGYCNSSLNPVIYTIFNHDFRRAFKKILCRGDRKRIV
Description: as §1

[2] = acting as serotonin-S2 and α1-adrenoceptor antagonist, respectively; cited from earlier work

Row | SMILES | Ki (α1-Adrenergic receptor) [nM] | MBP (2 hr) ([1]; dose 1 mg/Kg) [mmHg] | other results
1 | CSC1=Nc2ccccc2C2=NCC(CN3CCN(c4ccccc4)CC3)N12 (stereo not drawn) [Example 5, 3-[4-(1-Phenyl)piperazinyl]methyl-5-methylthio-2,3-dihydroimidazo[1,2-c]quinazoline] | > 10 | – | –
2 | COc1ccccc1N1CCN(CC2CN=C3c4ccccc4N=C(SC)N32)CC1 (stereo not drawn) [Example 6, 3-{4-[1-(2-methoxyphenyl)piperazinyl]}methyl-5-methylthio-2,3-dihydroimidazo[1,2-c]quinazoline] | 0.54 ± 0.09 | 70 | –
3 | COc1cccc(N2CCN(CC3CN=C4c5ccccc5N=C(SC)N43)CC2)c1 (stereo not drawn) [Example 7, 3-{4-[1-(3-methoxyphenyl)piperazinyl]}methyl-5-methylthio-2,3-dihydroimidazo[1,2-c]quinazoline] | 48.9 ± 20.4 | – | Ki (α2-adrenergic receptor): 8360 ± 588 nM
4 | CSC1=Nc2ccccc2C2=NCC(CN3CCN(c4ccccc4Cl)CC3)N12 (stereo not drawn) [Example 9, 3-{4-[1-(2-chlorophenyl)piperazinyl]}methyl-5-methylthio-2,3-dihydroimidazo[1,2-c]quinazoline] | 0.34 ± 0.06 | 30 | Ki (α2-adrenergic receptor): 180 ± 7 nM
5 | COC1=Nc2ccccc2C2=NCC(CN3CCN(c4cccc(OC)c4)CC3)N12 (stereo not drawn) [Example 14, 3-{4-[1-(3-methoxyphenyl)piperazinyl]}methyl-5-methoxy-2,3-dihydroimidazo[1,2-c]quinazoline] | > 100 | – | –
6 | COC1=Nc2ccccc2C2=NCC(CN3CCN(c4ccccc4Cl)CC3)N12 (stereo not drawn) [Example 16, 3-{4-[1-(2-chlorophenyl)piperazinyl]}methyl-5-methoxy-2,3-dihydroimidazo[1,2-c]quinazoline] | – | 23 | –
7 | O=C1Nc2ccccc2C2=NCC(CN3CCN(c4ccccc4)CC3)N12 (stereo not drawn) [Example 17, 3-(4-Phenyl-1-piperazinyl)-methyl-2,3-dihydroimidazo[1,2-c]quinazolin-5(6H)-one] | – | – | Ki (α2-adrenergic receptor): 962 ± 29 nM
8 | CN1C(=O)N2C(=NCC2CN2CCN(c3ccccc3Cl)CC2)c2ccccc21 (stereo not drawn) [Example 22, 3-{4-[1-(2-chlorophenyl)piperazinyl]}methyl-6-methyl-2,3-dihydroimidazo[1,2-c]quinazolin-5(6H)-one] | – | 50 | –
9 | COc1ccccc1N1CCN(CCn2c(=O)[nH]c3ccccc3c2=O)CC1.Cl [SGB-1534, reference compound] | 0.25 ± 0.06 | – | antihypertensive activity (in words), background art [2]: found to have antihypertensive activities
10 | O=C(c1ccc(F)cc1)C1CCN(CCn2c(=S)[nH]c3ccccc3c2=O)CC1 [thioketanserin] | – | – | antihypertensive activity (in words), background art [2]: found to have antihypertensive activities

Second part, led by results:

Row | Ki (α1-Adrenergic receptor) [nM] | SMILES | MBP (2 hr) ([1]; dose 1 mg/Kg) [mmHg] | other results
11 | 0.07 ± 0.007 | COC1=Nc2ccccc2C2=NCC(CN3CCN(c4ccccc4OC)CC3)N12 (stereo not drawn) [Example 12, 3-{4-[1-(2-Methoxyphenyl)piperazinyl]}methyl-5-methoxy-2,3-dihydroimidazo[1,2-c]quinazoline] | – | –
12 | 0.45 ± 0.09 | COc1ccccc1N1CCN(CC2CN=C3c4ccccc4NC(=O)N32)CC1 (stereo not drawn) [Example 18, 3-{4-[1-(2-methoxyphenyl)piperazinyl]}methyl-2,3-dihydroimidazo[1,2-c]quinazolin-5(6H)-one] | 50 | –
13 | 5.76 ± 0.48 | COc1cccc(N2CCN(CC3CN=C4c5ccccc5NC(=O)N43)CC2)c1 (stereo not drawn) [Example 19, 3-{4-[1-(3-methoxyphenyl)piperazinyl]}methyl-2,3-dihydroimidazo[1,2-c]-quinazolin-5(6H)-one] | – | –
14 | 0.58 ± 0.07 | O=C1Nc2ccccc2C2=NCC(CN3CCN(c4ccccc4Cl)CC3)N12 (stereo not drawn) [Example 21, 3-{4-[1-(2-chlorophenyl)piperazinyl]}methyl-2,3-dihydroimidazo[1,2-c]quinazolin-5(6H)-one] | 35 | –
15 | 0.36 ± 0.05 | COc1ccccc1N1CCN(CC2CN=C3c4ccccc4N(C)C(=O)N32)CC1 (stereo not drawn) [Example 23, 3-{4-[1-(2-methoxyphenyl)piperazinyl]}methyl-6-methyl-2,3-dihydroimidazo[1,2-c]quinazolin-5(6H)-one] | 63 | MBP (2 hr) ([1]; dose 0.25 mg/Kg): 40 mmHg
